Assay results as given in the supplement of paper PMC10307832.

Experiments:
Assay in all cases: relative viability (nuclei count vs DMSO), 5 days (fraction); higher = more cells survive
RO-3306 + AZD7762 = compound: C1=CC2=C(C=CC(=C2)C=C3C(=O)NC(=NCC4=CC=CS4)S3)N=C1 [RO-3306] + NC(=O)Nc1cc(-c2cccc(F)c2)sc1C(=O)N[C@H]1CCCNC1 [AZD7762] (partner 0.2 µM)
In short: (§1)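 The day after seeding in 1536-well plates, lung cancer cell lines were treated by pin tool with a single drug, or with a fixed anchor-drug dose together with five library-drug doses (not always all listed) in √10 steps. After 5 days, a combined fix-and-stain solution (final 0.05% Triton X-100, 1% formaldehyde, 1 ug/ml Hoechst) was added. Nuclei counted on 4× images gave relative viability as treated counts over vehicle counts, reported as the median of duplicate plates.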

RO-3306 + Crizotinib = compound: C1=CC2=C(C=CC(=C2)C=C3C(=O)NC(=NCC4=CC=CS4)S3)N=C1 [RO-3306] + C[C@@H](Oc1cc(-c2cnn(C3CCNCC3)c2)cnc1N)c1c(Cl)ccc(F)c1Cl [Crizotinib] (partner 1 µM)
In short: as §1

[1] = compound: O=S(=O)(c1ccccc1)N(CC(F)(F)F)c1ccc(C(O)(C(F)(F)F)C(F)(F)F)cc1 + Cc1cc(Nc2cc(N3CCN(C)CC3)nc(Sc3ccc(NC(=O)C4CC4)cc3)n2)n[nH]1 [Tozasertib] (partner 0.1 µM)
In short: as §1

RO-3306 + Trametinib = compound: C1=CC2=C(C=CC(=C2)C=C3C(=O)NC(=NCC4=CC=CS4)S3)N=C1 [RO-3306] + CC(=O)Nc1cccc(-n2c(=O)n(C3CC3)c(=O)c3c(Nc4ccc(I)cc4F)n(C)c(=O)c(C)c32)c1 [Trametinib] (partner 0.02 µM)
In short: as §1

Q: For NCI-H1734, which relative viability (RO-3306 + AZD7762; first compound 0.01 µM) is on record?
A: 0.596

Q: And the relative viability (RO-3306 + AZD7762; first compound 0.03162 µM)?
A: 0.491

Q: What about the relative viability (RO-3306 + AZD7762; first compound 0.1 µM) of the same cell line?
A: 0.536

Q: What about the relative viability (RO-3306 + AZD7762; first compound 0.3162 µM) of the same cell line?
A: 0.585

Q: What about the relative viability (RO-3306 + AZD7762; first compound 1 µM) of the same cell line?
A: 0.483

Q: What about the relative viability (RO-3306 + Crizotinib; first compound 0.01 µM) of the same cell line?
A: 0.714

Q: And the relative viability (RO-3306 + Crizotinib; first compound 0.03162 µM)?
A: 0.656

Q: What about the relative viability (RO-3306 + Crizotinib; first compound 0.1 µM) of the same cell line?
A: 0.694

Q: And the relative viability (RO-3306 + Crizotinib; first compound 0.3162 µM)?
A: 0.624

Q: And the relative viability (RO-3306 + Crizotinib; first compound 1 µM)?
A: 0.623

Q: What about the relative viability ([1]; first compound 0.8 µM) of the same cell line?
A: 0.294

Q: And the relative viability ([1]; first compound 2.53 µM)?
A: 0.29

Q: What about the relative viability ([1]; first compound 8 µM) of the same cell line?
A: 0.244

Q: And the relative viability (RO-3306 + Trametinib; first compound 0.01 µM)?
A: 0.757

Q: And the relative viability (RO-3306 + Trametinib; first compound 0.03162 µM)?
A: 0.607

Q: What about the relative viability (RO-3306 + Trametinib; first compound 0.1 µM) of the same cell line?
A: 0.61

Q: And the relative viability (RO-3306 + Trametinib; first compound 0.3162 µM)?
A: 0.685

Q: And the relative viability (RO-3306 + Trametinib; first compound 1 µM)?
A: 0.628

Q: What does the source list for NCI-H2087?
A: relative viability (RO-3306 + AZD7762; first compound 0.01 µM): 1.42; relative viability (RO-3306 + AZD7762; first compound 0.03162 µM): 1.03; relative viability (RO-3306 + AZD7762; first compound 0.1 µM): 1.35; relative viability (RO-3306 + AZD7762; first compound 0.3162 µM): 1.42; relative viability (RO-3306 + AZD7762; first compound 1 µM): 1.34; relative viability (RO-3306 + Crizotinib; first compound 0.01 µM): 1; relative viability (RO-3306 + Crizotinib; first compound 0.03162 µM): 0.902; relative viability (RO-3306 + Crizotinib; first compound 0.1 µM): 1.04; relative viability (RO-3306 + Crizotinib; first compound 0.3162 µM): 0.893; relative viability (RO-3306 + Crizotinib; first compound 1 µM): 0.945; relative viability ([1]; first compound 0.8 µM): 0.255; relative viability ([1]; first compound 2.53 µM): 0.258; relative viability ([1]; first compound 8 µM): 0.188; relative viability (RO-3306 + Trametinib; first compound 0.01 µM): 0.176; relative viability (RO-3306 + Trametinib; first compound 0.03162 µM): 0.193; relative viability (RO-3306 + Trametinib; first compound 0.1 µM): 0.188; relative viability (RO-3306 + Trametinib; first compound 0.3162 µM): 0.234; relative viability (RO-3306 + Trametinib; first compound 1 µM): 0.202

Q: With NCI-H460 as the cell line, how does the relative viability (RO-3306 + AZD7762; first compound 0.01 µM) read?
A: 0.797

Q: What about the relative viability (RO-3306 + AZD7762; first compound 0.03162 µM) of the same cell line?
A: 0.675

Q: And the relative viability (RO-3306 + AZD7762; first compound 0.1 µM)?
A: 0.682

Q: And the relative viability (RO-3306 + AZD7762; first compound 0.3162 µM)?
A: 0.737

Q: And the relative viability (RO-3306 + AZD7762; first compound 1 µM)?
A: 0.785

Q: What about the relative viability (RO-3306 + Crizotinib; first compound 0.01 µM) of the same cell line?
A: 0.958

Q: And the relative viability (RO-3306 + Crizotinib; first compound 0.1 µM)?
A: 1.02

Q: And the relative viability (RO-3306 + Crizotinib; first compound 0.3162 µM)?
A: 0.9

Q: And the relative viability (RO-3306 + Crizotinib; first compound 1 µM)?
A: 0.436

Q: And the relative viability ([1]; first compound 0.8 µM)?
A: 0.392

Q: And the relative viability ([1]; first compound 2.53 µM)?
A: 0.417

Q: What about the relative viability ([1]; first compound 8 µM) of the same cell line?
A: 0.243

Q: And the relative viability (RO-3306 + Trametinib; first compound 0.01 µM)?
A: 0.162

Q: What about the relative viability (RO-3306 + Trametinib; first compound 0.03162 µM) of the same cell line?
A: 0.115

Q: What about the relative viability (RO-3306 + Trametinib; first compound 0.1 µM) of the same cell line?
A: 0.139

Q: And the relative viability (RO-3306 + Trametinib; first compound 0.3162 µM)?
A: 0.223

Q: And the relative viability (RO-3306 + Trametinib; first compound 1 µM)?
A: 0.128

Q: Which results are given for A-427?
A: relative viability (RO-3306 + AZD7762; first compound 0.01 µM): 0.821; relative viability (RO-3306 + AZD7762; first compound 0.03162 µM): 0.766; relative viability (RO-3306 + AZD7762; first compound 0.1 µM): 0.685; relative viability (RO-3306 + AZD7762; first compound 0.3162 µM): 0.744; relative viability (RO-3306 + AZD7762; first compound 1 µM): 0.832; relative viability (RO-3306 + Crizotinib; first compound 0.01 µM): 1.02; relative viability (RO-3306 + Crizotinib; first compound 0.03162 µM): 0.883; relative viability (RO-3306 + Crizotinib; first compound 0.1 µM): 0.904; relative viability (RO-3306 + Crizotinib; first compound 0.3162 µM): 0.955; relative viability (RO-3306 + Crizotinib; first compound 1 µM): 0.845; relative viability ([1]; first compound 0.8 µM): 0.186; relative viability ([1]; first compound 2.53 µM): 0.216; relative viability ([1]; first compound 8 µM): 0.298; relative viability (RO-3306 + Trametinib; first compound 0.01 µM): 0.782; relative viability (RO-3306 + Trametinib; first compound 0.03162 µM): 0.802; relative viability (RO-3306 + Trametinib; first compound 0.1 µM): 0.679; relative viability (RO-3306 + Trametinib; first compound 0.3162 µM): 0.758; relative viability (RO-3306 + Trametinib; first compound 1 µM): 0.669
